Experimental data: US9388136B2, “Tert-butyl N-[2-{4-[6-amino-5-(2,4-difluorobenzoyl)-2-oxopyridin-1(2H)-yl]-3,5-difluorophenyl}ethyl]-L-alaninate or a salt, hydrate or solvate thereof” (Chroma Therapeutics Ltd., priority 2012, dated 2016)
Like-named read-outs stand apart in the source and are kept apart here.

Key:
[1] = tested on: THP-1 cells; test: LPS-stimulation of THP-1 cells, TNF-α levels by ELISA; type: cell-based; settings: Homo sapiens, THP-1; LPS 1 μg/ml, 6 hrs; read-out: C—ester TNF-alpha inhibition (THP-1 cells), IC50
Protocol: THP-1 cells were plated in 100 μl at a density of 4×10^4 cells/well in V-bottomed 96 well tissue culture treated plates and incubated at 37° C. in 5% CO2 for 16 hrs. 2 hrs after the addition of the inhibitor in 100 μl of tissue culture media, the cells were stimulated with LPS (E coli strain 005:B5, Sigma) at a final concentration of 1 μg/ml and incubated at 37° C. in 5% CO2 for 6 hrs. TNF-α levels were measured from cell-free supernatants by sandwich ELISA (R&D Systems #QTA00B).

[2] = molecular target: p38 MAP Kinase a (Homo sapiens (Human), UniProt Q16539); test: p38 MAP kinase enzyme assay (radiometric filter-binding); type: biochemical
p38 MAP Kinase a, sequence (Q16539 whole entry): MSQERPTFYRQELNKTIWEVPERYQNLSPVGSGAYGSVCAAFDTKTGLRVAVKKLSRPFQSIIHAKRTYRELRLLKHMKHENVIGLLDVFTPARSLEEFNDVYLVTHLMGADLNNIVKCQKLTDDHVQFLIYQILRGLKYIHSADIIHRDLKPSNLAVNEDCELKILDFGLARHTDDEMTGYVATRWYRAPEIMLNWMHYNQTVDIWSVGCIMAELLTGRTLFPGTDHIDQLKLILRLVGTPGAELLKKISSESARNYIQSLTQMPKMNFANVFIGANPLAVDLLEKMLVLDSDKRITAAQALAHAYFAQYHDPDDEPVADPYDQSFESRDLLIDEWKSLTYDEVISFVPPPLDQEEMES
Protocol: The ability of compounds to inhibit p38 MAP a Kinase activity was measured in an assay performed by Upstate (Dundee UK). In a final reaction volume of 25 μL, p38 MAP Kinase a (5-10 mU) is incubated with 25 mM Tris pH 7.5, 0.002 mMEGTA, 0.33 mg/mL myelin basic protein, 10 mM MgAcetate and [g-33p-ATP] (specific activity approx. 500 cpm/pmol, concentration as required). The reaction is initiated by the addition of the MgATP mix. After incubation for 40 minutes at room temperature, the reaction is stopped by the addition of 5 μL of a 3% phosphoric acid solution. 10 μL of the reaction is then spotted onto a P30 filtermat and washed three times for 5 minutes in 75 mM phosphoric acid and once in methanol prior to drying and scintillation counting.
Duplicate data points are generated from a 1/3 log dilution series of a stock solution in DMSO. Nine dilutions steps are made from a top concentration of 10 μM, and a ‘no compound’ blank is included. The standard radiometric filter-binding assay is performed at an ATP concentration at, or close to, the Km. Data from scintillation counts are collected and subjected to free-fit analysis by Prism software.

[3] = tested on: human whole blood; test: LPS-stimulation of human whole blood, TNF-α levels by ELISA; type: cell-based; settings: Homo sapiens; LPS 100 ng/ml, 6 hrs; read-out: D—ester TNF-alpha inhibition (human whole blood), IC50
Protocol: Whole blood was taken by venous puncture using heparinised vacutainers (Becton Dickinson) and diluted in an equal volume of RPMI1640 tissue culture media (Sigma). 100 μl was plated in V-bottomed 96 well tissue culture treated plates. 2 hrs after the addition of the inhibitor in 100 μl of RPMI1640 media, the blood was stimulated with LPS (E coli strain 005:B5, Sigma) at a final concentration of 100 ng/ml and incubated at 37° C. in 5% CO2 for 6 hrs. TNF-α levels were measured from cell-free supernatants by sandwich ELISA (R&D Systems #QTA00B).

[4] = Plasma exposure in mice; type: in vivo; settings: mouse, po 10 mg/kg, male CD1 mice
Protocol: The compounds were formulated in 8% DMSO, 92% 11.25% hydroxypropyl-β-cyclodextrin in water using the following procedure: the compounds were fully dissolved in 100% DMSO and then the hydroxypropyl-β-cyclodextrin solution added. The fine precipitate formed was re-dissolved by the addition of aqueous HCl and the pH adjusted to 4 with aqueous sodium hydroxide.
Each compound was administered orally at 10 mg/kg, in a total dose volume of 5 ml/kg, to male CD1 mice ([…]). Three mice were used for each time point. Blood samples were taken at the following time points: 5, 15, 30, 60, 120, 240 and 360 minutes, by terminal cardiac puncture, under halothane/isofluorane anaesthesia. Blood samples were collected into pre-chilled tubes containing NaF/EDTA and mixed. Samples were spun at 7-7.5×g for 2 minutes. The plasma was aspirated and frozen.
Plasma samples were prepared by precipitation of protein using three volumes of acetonitrile containing the internal standard. The supernatants were analysed by LCMS (Sciex API 3000, HP1100 binary pump, CTC PAL). The chromatography was based on an Acentis C8 (50×2.1 mm) column and a mobile phase of 5-95% acetonitrile in water/0.1% formic acid.
Exposure (AUC) was calculated from the plasma concentration versus time profile using PK Solutions 2.0 (Summit Research Services, Montrose, Colo.).

[5] = corresponding acid (hydrolysis product of the named ester) tested, read-out: B—acid enzyme assay (p38 kinase A (invitrogen)), IC50
[6] = ester tested, read-out: A—ester enzyme assay (p38 kinase A (invitrogen)), IC50

| Structure (SMILES) | IC50 [1] [nM] | IC50 [2, 5] [nM] | IC50 [2, 6] [nM] | IC50 [3] [nM] | AUC(0-t) [4] [ng·h/mL] |
| --- | --- | --- | --- | --- | --- |
| CC(C)C[C@H](NCCc1cc(F)c(-n2c(N)c(C(=O)c3ccc(F)cc3F)ccc2=O)c(F)c1)C(=O)OC1CCCC1 [cyclopentyl N-(2-{4-[6-amino-5-(2,4-difluoro-benzoyl)-2-oxopyridin-1(2H)-yl]-3,5-difluoro-phenyl}ethyl)-L-leucinate] | 0.5 | 1 | 231 | 54 | 14 |
| CC(C)C[C@H](NCCc1cc(F)c(-n2c(N)c(C(=O)c3ccc(F)cc3F)ccc2=O)c(F)c1)C(=O)OC(C)(C)C [tert-butyl N-(2-{4-[6-amino-5-(2,4-difluoro-benzoyl)-2-oxopyridin-1(2H)-yl]-3,5-difluorophenyl}ethyl)-L-leucinate] | 3 | 1 | 120 | 191 | 75 |
| CC(C)C[C@H](NCCCCCOc1cc(F)c(-n2c(N)c(C(=O)c3ccc(F)cc3F)ccc2=O)c(F)c1)C(=O)OC(C)(C)C [tert-Butyl N-(5-{4-[6-amino-5-(2,4-difluoro-benzoyl)-2-oxopyridin-1(2H)-yl]-3,5-difluorophenoxy}pentyl)-L-leucinate] | 29 | 2 | 73 | 1250 |  |
| C[C@H](NCCc1cc(F)c(-n2c(N)c(C(=O)c3ccc(F)cc3F)ccc2=O)c(F)c1)C(=O)OC(C)(C)C [tert-Butyl N-(2-{4-[6-amino-5-(2,4-difluorobenzoyl)-2-oxopyridin-1(2H)-yl]-3,5-difluorophenyl}ethyl)-L-alaninate] | 1.6 | 1 | 12 | 26 | 102 |
